The values below come from JP2014001205A, “動物の寄生虫防除剤” (Nissan Chemical Corp, priority 2012, dated 2014).

The subject of test [1] is cat flea (Ctenocephalides felis) adults [ネコノミ(Ctenocephalides felis)成虫]. As to the kind of experiment: Efficacy test against cat flea (Test Example 1), glass container film contact. In kind it is in vivo. The conditions noted are these: 96 h, read-out: efficacy (number of insects with abnormal behaviour due to compound / number released × 100).
Test [2] deals with American dog tick (Dermacentor variabilis) first nymphs [American dog tick(Dermacentor variabilis)第1若虫]. The experiment in a line: Efficacy test against American dog tick (Test Example 2), glass container film contact. The test is classed as in vivo. Conditions: 96 h, 10μg/cm2, 5 first nymphs (mixed sex), 25℃, 4 days, duplicate, read-out: efficacy (number with abnormal behaviour due to compound / number released × 100).

Where [3] appears, read: 10μg/cm2, 5 adults (mixed sex), 25℃, 4 days, duplicate.

Where two headings read alike, the source gives them in different places.

Regarding `CCN(C(=O)C=CSC)c1cn(-c2cccnc2)nc1Cl` (single isomer, unassigned) [1−071], the pest or weed control at 10 µg/cm2 in test [1] (setting [3]) and in test [2] was at least 80% throughout.
As for `CSC[C@@H](C)C(=O)N(C)c1cn(-c2cccnc2)nc1Cl` [1−039(S)−(−)], the pest or weed control at 10 µg/cm2 in test [1] (setting [3]) and in test [2] was at least 80% each time.
For the compound `CCN(C(=O)[C@H](C)CS(C)(=O)=O)c1cn(-c2cccnc2)nc1Cl` [1−050(S)−(+)], the pest or weed control at 10 µg/cm2 in test [1] (setting [3]) and in test [2] was at least 80% each time.
Regarding `CCN(C(=O)CSC)c1cn(-c2cccnc2)nc1Cl` [1−079], the pest or weed control at 10 µg/cm2 in test [1] (setting [3]) and in test [2] was at least 80% in each case.
Turning to `CCN(C(=O)CS(C)(=O)=O)c1cn(-c2cccnc2)nc1Cl` [1−080], the pest or weed control at 10 µg/cm2 in test [1] (setting [3]) and in test [2] was at least 80% throughout.
Turning to `CCN(C(=O)COC(C)=O)c1cn(-c2cccnc2)nc1Cl` [1−082], the pest or weed control at 10 µg/cm2 in test [1] (setting [3]) and in test [2] was at least 80% each time.
On to `CCCSC(C)C(=O)N(CC)c1cn(-c2cccnc2)nc1Cl` (stereo not shown) [1−246], for which the pest or weed control at 10 µg/cm2 in test [1] (setting [3]) and in test [2] was at least 80% each time.
For the compound `CCc1nn(-c2cccnc2)cc1NC(=O)OC(C)(C)C` [1−435], the pest or weed control at 10 µg/cm2 in test [1] (setting [3]) and in test [2] was at least 80% throughout.
As to `CCCC(C)C(=O)N(CC)c1cn(-c2cccnc2)nc1Cl` (stereo not shown) [1−483], the pest or weed control at 10 µg/cm2 in test [1] (setting [3]) and in test [2] was at least 80% throughout.
On to `CNC(=S)Nc1cn(-c2cccnc2)nc1Cl` [1−552], for which the pest or weed control at 10 µg/cm2 in test [1] (setting [3]) is at least 80%.
For the compound `CC(C)NC(=S)Nc1cn(-c2cccnc2)nc1Cl` [1−554], in test [1] (setting [3]), the pest or weed control at 10 µg/cm2 was at least 80%.
For `CCN(C(N)=O)c1cn(-c2cccnc2)nc1Cl` [1−572], the pest or weed control at 10 µg/cm2 in test [1] (setting [3]) was at least 80%.
As for `CN(C(=O)NCC(F)(F)F)c1cn(-c2cccnc2)nc1Br` [1−586], the pest or weed control at 10 µg/cm2 in test [1] (setting [3]) is at least 80%.
Same read-out and setting: under `CCN(C(=O)NCC(F)(F)F)c1cn(-c2cccnc2)nc1Br` [1−587] stands at least 80%.
With `O=C(NCCCl)Nc1cn(-c2cccnc2)nc1Cl` [1−593], the pest or weed control at 10 µg/cm2 in test [1] is at least 80%.
Consider `C=CCNC(=O)N(CC)c1cn(-c2cccnc2)nc1Cl` [1−595], for which the pest or weed control at 10 µg/cm2 in test [1] (setting [3]) was at least 80%.
Same read-out and setting: for `CCN(C(=O)C(C)CS(=O)(=O)N(C)C)c1cn(-c2cccnc2)nc1Cl` (stereo not shown) [1−596] the value was at least 80%.
On the same count and under the same terms, for `CCSC(C)C(=Nc1cn(-c2cccnc2)nc1Cl)SC` (stereo not shown) [3−006, メチル N−3−クロロ−1−(ピリジン−3−イル)−1H−ピラゾール−4−イル−2−(エチルチオ)プロパンイミドチオエート] the value was at least 80%; for `Cc1c(NC(=O)OC(C)(C)C)cnn1-c1cccnc1` [5−001, tert−ブチル 5−メチル−1−(ピリジン−3−イル)−1H−ピラゾール−4−イルカーバメート], at least 80%.
